# From patent publication US20260140118A1, “COMBINATION DRUG” (CHUGAI SEIYAKU KABUSHIKI KAISHA, priority 2022, published 2026)
# Where two headings read alike, the source gives them in different places.
# Key:
# DTP cells [1] = assay: Screening test of anticancer agent library (3114 compounds) for growth suppressive action on DTP cells; format: cell-based, human; conditions: DTP cells from NCI-H2228 treated with alectinib for 13 days
# DTP cells [2] = assay: Cell growth suppression test on DTP cells; format: cell-based, human
# Protocol: (§1) Next, for these nine compounds, a cell growth suppression test was conducted, and the ratio of IC50 of DTP cells with respect to the parental line was calculated.
# [3] = tested on: NCI-H2228 cells (parental cells); assay: Cell growth suppression test on NCI-H2228 parental cells; format: cell-based, human; conditions: for IC50: Table 3, nine screening hits; for Sensitivity of NCI-H2228 cells: parental cells
# Protocol: as §1
# [4] = tested on: NCI-H2228 cells (parental cells); assay: as above; format: cell-based; conditions: Homo sapiens
# Regrown cells = assay: Cell growth suppression test on regrown cells; format: cell-based, human; conditions: DTP cells cultured in alectinib-free medium for 37 days; for IC50: Homo sapiens, Table 4
# FGFR1 knockout cells = assay: Cell growth test on FGFR1 knockout cells (CRISPR/Cas9); format: cell-based, human; conditions: two clones
# Source text: (§2) Using NEPA21 Electroporation, crRNA and Cas9 protein (Nippon Gene Co., Ltd.) targeting FGFR1 or FGF2 (Fasmac) were introduced into cells, two single clones were isolated from each clone cell with Smart Aliquotor (NT Science, Aichi, Japan), and it was confirmed by the Western blotting analysis that FGFR1 or FGF2 knockout cells lost FGFR1 or FGF2 protein (FIG. 5C).
# FGF2 knockout cells = assay: Cell growth test on FGF2 knockout cells (CRISPR/Cas9); format: cell-based, human; conditions: two clones
# Source text: as §2
# [5] = tested on: alectinib-resistant NCI-H2228 cells; assay: Cell growth test on alectinib-resistant NCI-H2228 cells; format: cell-based; conditions: Homo sapiens
# [6] = tested on: FGFR1 or FGF2 knockout cells; assay: Caspase-Glo 3/7 apoptosis assay and Western blotting in FGFR1 or FGF2 knockout cells; format: cell-based, human
# Protocol: as §2
# The FGFR1 or FGF2 knockout cells obtained as described above were seeded on a 384-well plate, and on the following day, a drug was added at an indicated concentration, followed by culturing for an indicated time. The caspase 3 and 7 activity to signal induction of apoptosis in cells was measured using Caspase-Glo 3/7 Assay (Promega) in accordance with the protocol from the manufacturer. […] Each point represents an average+standard deviation from three experiments.
# [7] = tested on: SNU-2535 cells excessively expressing FGFR1 and FGF2; assay: Cell growth and Western blotting in SNU-2535 cells excessively expressing FGFR1 and FGF2; format: cell-based, human; conditions: as compared to control cells or cells excessively expressing FGF2
# Source text: For further confirming that both FGFR1 and FGF2 are necessary for cell survival in ALK inhibitor treatment, FGFR1 and FGF2 were excessively expressed in SNU2535 cells of ALK fusion gene-positive non-small cell lung cancer (NSCLC) (FIG. 7B).
# FGFR1, FGF2, or a human coding sequence (CDS) as a control was synthesized, and cloned downstream of an EF1A promoter in a lentivirus vector with VectorBuilder (Chicago, Illinois, USA), and SNU-2535 cells were infected with a lentivirus vector. After 1 day, the culture solution was cultured in a puromycin-containing medium for 4 days, cells excessively expressing FGFR1 and FGF2 were selected, and clones were isolated with Smart Aliquotor. The expression of FGFR1 or FGF2 protein was confirmed by the Western blotting analysis.
# DTP cells [8] = conditions: Western blotting; STAT3, AKT, ERK, S6, FGFR1
# Protocol: (§3) The cells were seeded on a 6-well plate, and on the following day, a drug was added, followed by culturing for a certain time. A Sally Sue or Jess capillary electrophoresis-based protein analysis system (ProteinSimple, Santa Clara, CA, USA) was charged with protein lysates in equal amounts for each of Western blotting methods. As the antibody, antibodies to ALK, phospho-ALK, FGFR1, FGFR2, FGFR3, FGFR4, ERK, phospho-ERK, AKT, phospho-AKT, EGFR, phospho-EGFR, MET, β-actin, phospho-MET, HER2, CD44, BIM, VIM, CDH1, S6, pS6 and STAT3 (Cell Signaling Technology, Danvers, MA, USA), Cleaved PARP, phospho-HER2, FGF2 and FGF12 (Abcam) were used.
# [9] = tested on: NCI-H2228 cells (parental cells); conditions: Western blotting, STAT3, AKT, ERK, S6
# Protocol: as §3
# NCI-H2228 tumor = assay: NCI-H2228 subcutaneous xenograft in nude mice; format: in vivo, mouse; conditions: oral administration for 11 days
# Protocol: From The Jackson Laboratory Japan, Inc. (Yokohama, Japan), 4 to 5-week-old male BALB/c-nu/nu mice (CAnN Cg-Foxn1/Cr1Cr1j nu/nu) were purchased. Cells were subcutaneously inoculated to the right flank region at 5×10^6 per mouse. The tumor volume and the body weight were measured twice weekly, where the tumor volume was estimated as below. Tumor volume=ab^2/2 (a and b indicate the length and the width of the tumor, respectively. After the establishment of the tumor, the mice were assigned randomly to a solvent administration group, drug administration groups, or a combined administration group identical in dose and schedule to the group receiving each single drug, followed by oral administration for 11 days in a row.
# [10] = NCI-H2228, Example 5, read-out: IC50 value, NCI-H2228 cells, FGFR inhibitor alone
# [11] = Homo sapiens, Table 3, nine screening hits
# [12] = Homo sapiens, NCI-H2228, NCI-H2228
# [13] = NCI-H2228, 192 h, Example 4, treated for 8 days, single or in combination, read-out: IC50, NCI-H2228 Parental cells
# [14] = NCI-H2228, FIG. 5D, 5E, read-out: IC50 value, parental cells (comparison to knockout cells)
# [15] = Table 4, NCI-H2228, read-out: IC50, Parental cells
smiles,measurement,setting,value
c1cc(Nc2cc(C3CC3)[nH]n2)nc(Nc2ccc3nc[nH]c3c2)n1 [APY29],Anti-proliferative effect on DTP cells,DTP cells [1],0.68
same,IC50 Ratio of parental to DTP cells,DTP cells [2]; Table 3,3.8
same,IC50,"DTP cells [2]; Table 3, nine screening hits",0.445 µM
same,IC50,[3],1.7 µM
"COc1cc(CCc2cc(NC(=O)c3ccc(N4C[C@@H](C)N[C@@H](C)C4)cc3)n[nH]2)cc(OC)c1 [AZD4547, N-(5-(3,5-dimethoxyphenethyl)-1H-pyrazol-3-yl)-4-((3S, 5R)-3,5-dimethylpiperazin-1-yl)benzamide]",IC50,[4]; [10],> 1 µM
Cc1cc([C@@H](C)Nc2ccccc2C(=O)O)c2nc(N3CCOCC3)cc(=O)n2c1 [AZD6482],IC50,DTP cells [2]; [11],4.57 µM
same,IC50 Ratio of parental to DTP cells,DTP cells [2]; Table 3,2.2
same,IC50,"[3]; Homo sapiens, NCI-H2228",9.87 µM
CN(C)C/C=C/C(=O)Nc1cc2c(Nc3ccc(F)c(Cl)c3)ncnc2cc1O[C@H]1CCOC1 [Afatinib],IC50,DTP cells [2]; [11],5.02 µM
same,IC50 Ratio of parental to DTP cells,DTP cells [2]; Table 3,1.3
same,IC50,"[3]; Homo sapiens, NCI-H2228",6.43 µM
"CCc1cc2c(cc1N1CCC(N3CCOCC3)CC1)C(C)(C)c1[nH]c3cc(C#N)ccc3c1C2=O.Cl [Alectinib, 9-ethyl-6,6-dimethyl-8-[4-(morpholin-4-yl)-piperidin-1-yl]-11-oxo-6,11-dihydro-5H-benzo[b]carbazole-3-carbonitrile-hydrochloride]",Sensitivity of DTP cells,DTP cells [2],did not exhibit sensitivity
same,IC50,"DTP cells [2]; Homo sapiens, NCI-H2228, 312 h",> 1 µM
same,Sensitivity of NCI-H2228 cells,[3],exhibited sensitivity
same,Sensitivity of regrown cells as compared to DTP cells,Regrown cells,recovered sensitivity
same,IC50,Regrown cells,0.48 µM
same,IC50,FGFR1 knockout cells; [12],0.0054 µM
same,IC50,FGFR1 knockout cells; NCI-H2228,0.0073 µM
same,IC50,FGF2 knockout cells; [12],0.0056 µM
same,IC50,FGF2 knockout cells; NCI-H2228,0.0061 µM
same,IC50,[5],> 1 µM
same,Induction of apoptosis (caspase 3 and 7 activity) in FGFR1 or FGF2 knockout cells as compared to parental cells,[6],enhanced
same,Action of inhibiting ERK in FGFR1 or FGF2 knockout cells as compared to parental cells,[6]; Western blotting,enhanced
same,Cell growth suppressive effect in cells excessively expressing FGFR1 and FGF2,[7],decreased
same,Suppressive effect on the amount of phosphorylation of ERK in cells excessively expressing FGFR1 and FGF2,[7],decreased
same,IC50,[4]; [13],0.22 µM
same,IC50,[4]; [14],0.22 µM
same,IC50,[4]; [15],0.22 µM
"CCN1CCN(c2ccc(Nc3cc(N(C)C(=O)Nc4c(Cl)c(OC)cc(OC)c4Cl)ncn3)cc2)CC1 [BGJ398, N′-(2,6-dichloro-3,5-dimethoxyphenyl)-N-[6-[[4-(4-ethyl-1-piperazinyl)phenyl]amino]-4-pyrimidinyl]-N-methyl-urea]",Sensitivity of DTP cells,DTP cells [2],exhibited sensitivity
same,IC50,"DTP cells [2]; Homo sapiens, NCI-H2228, 312 h",0.0578 µM
same,Sensitivity of NCI-H2228 cells,[3],did not exhibit sensitivity
same,Sensitivity of regrown cells as compared to DTP cells,Regrown cells,lost sensitivity
same,IC50,Regrown cells,> 1 µM
same,IC50,[5],> 1 µM
same,Action of inhibiting the phosphorylation of signal molecules in DTP cells,DTP cells [8],an action of inhibiting the phosphorylation of FGFR1 and phosphorylation of ERK
same,Action of inhibiting the phosphorylation of ALK/FGFR1 signal molecules in parental cells,[9],not observed
same,Tumor growth suppressive effect,NCI-H2228 tumor,did not suppress tumor growth
same,IC50,[4]; [13],> 1 µM
same,IC50,[4]; [10],> 1 µM
same,IC50,[4]; [15],> 1 µM
C[C@@H]1C[C@H]2[C@@H]3CCC4=CC(=O)C=C[C@]4(C)[C@@]3(F)[C@@H](O)C[C@]2(C)[C@@]1(O)C(=O)CO [Dexamethasone],IC50,DTP cells [2]; [11],1.32 µM
same,IC50,"[3]; Homo sapiens, NCI-H2228",> 10 µM
"COc1cc(OC)cc(N(CCNC(C)C)c2ccc3ncc(-c4cnn(C)c4)nc3c2)c1 [Erdafitinib, N^1-(3,5-dimethoxyphenyl)-N^2-(1-methylethyl)-N^1-[3-(1-methyl-1H-pyrazol-4-yl)-6-quinoxalinyl]-1,2-ethanediamine]",Cell growth suppressive effect on DTP cells among the nine compounds,DTP cells [2]; by ratio of IC50,most potent cell growth suppressive effect
C[C@]12CCC(=O)C=C1CC[C@@H]1[C@@H]2[C@@H](O)C[C@@]2(C)[C@H]1CC[C@]2(O)C(=O)CO [Hydrocortisone],IC50,DTP cells [2]; [11],2.16 µM
same,IC50,"[3]; Homo sapiens, NCI-H2228",> 10 µM
"C[C@H]1Oc2cc(cnc2N)-c2c(nn(C)c2C#N)CN(C)C(=O)c2ccc(F)cc21 [Lorlatinib, (10R)-7-amino-12-fluoro-2,10,16-trimethyl-15-oxo-10,15,16,17-tetrahydro-2H-4,8-methanepyrazolo[4,3-h][2,5,11]benzoxadiazacyclotetradecine-3-carbonitrile]",IC50,"DTP cells [2]; Homo sapiens, NCI-H2228, 312 h",> 1 µM
same,IC50,FGFR1 knockout cells; [12],0.0007 µM
same,IC50,FGF2 knockout cells; [12],0.0007 µM
same,IC50,FGF2 knockout cells; NCI-H2228,0.0009 µM
same,IC50,[4]; [14],> 1 µM
same,IC50,[4]; [15],0.0038 µM
"COc1cc([C@@H]2c3cc4c(cc3[C@H](O)[C@H]3COC(=O)[C@@H]23)OCO4)cc(OC)c1OC [PPP, picropodophyllin]",Cell growth suppressive effects in parental cells and DTP cells compared,DTP cells [2]; FIGS. 1A and B,substantially equivalent
same,IC50,"DTP cells [2]; Homo sapiens, NCI-H2228, 312 h",0.182 µM
same,IC50,[4]; [15],0.152 µM
C=CC(=O)N1CCC(Oc2cc3c(Nc4ccc(Cl)c(Cl)c4F)ncnc3cc2OC)CC1 [Poziotinib],IC50,DTP cells [2]; [11],1.39 µM
same,IC50 Ratio of parental to DTP cells,DTP cells [2]; Table 3,2.8
same,IC50,"[3]; Homo sapiens, NCI-H2228",3.92 µM
CN(C)C/C=C/C(=O)Nc1ccc(C(=O)N2CCC[C@@H](Nc3ncc(Cl)c(-c4c[nH]c5ccccc45)n3)C2)cc1 [THZ531],IC50,DTP cells [2]; [11],0.154 µM
same,IC50 Ratio of parental to DTP cells,DTP cells [2]; Table 3,1.8
same,IC50,"[3]; Homo sapiens, NCI-H2228",0.271 µM
C[C@]12C=CC(=O)C=C1CC[C@H]1[C@@H]3C[C@@H](O)[C@](O)(C(=O)CO)[C@@]3(C)C[C@H](O)[C@@]12F [Triamcinolone],IC50,DTP cells [2]; [11],1.36 µM
same,IC50,"[3]; Homo sapiens, NCI-H2228",> 10 µM
